Target: T1, dihydrofolate synthetase (DHFS) (Escherichia coli, UniProt P08192)
T1 sequence (P08192 1-422): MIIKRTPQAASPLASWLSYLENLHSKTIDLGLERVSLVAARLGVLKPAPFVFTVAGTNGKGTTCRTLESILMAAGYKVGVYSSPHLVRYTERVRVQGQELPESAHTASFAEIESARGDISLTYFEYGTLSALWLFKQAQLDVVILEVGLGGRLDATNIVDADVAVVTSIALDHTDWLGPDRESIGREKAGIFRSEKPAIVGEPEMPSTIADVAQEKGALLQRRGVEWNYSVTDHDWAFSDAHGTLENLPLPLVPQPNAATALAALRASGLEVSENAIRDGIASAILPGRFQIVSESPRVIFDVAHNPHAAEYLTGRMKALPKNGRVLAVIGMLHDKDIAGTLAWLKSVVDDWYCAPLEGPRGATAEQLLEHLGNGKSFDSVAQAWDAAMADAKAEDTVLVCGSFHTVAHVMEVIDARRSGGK
Assay: PK/LDH-coupled steady-state kinetics and LC-MS of product
Format: biochemical

With `Nc1nc2c(c(=O)[nH]1)NC(CNc1ccc(C(=O)N[C@@H](CCC(=O)O)C(=O)O)cc1)CN2` (stereo partly shown) [THF] the “PK/LDH-coupled steady-state kinetics and LC-MS of product” value was “we used fully reduced THF as the substrate and assay for poly glutamylation”.
